Read-outs that look alike come from different tables or passages of the source.
How the values were obtained:
[1] = system: [125I]neurotensin binding sites (NT receptors); test: [125I]neurotensin binding assay, PAG and hypothalamus homogenates of treated rats; type: in vivo, rat; conditions: for number of receptors (mean ± SEM in fmol/mg wet wt.) / percent of control / Kd: 24 hours after single oral 10 mg/kg; for Kd: [125I]neurotensin, read-out: KD (mean ± SEM in nM)
[2] = system: NTR1 cDNA synthesis from total brain RNA; test: In vitro reverse transcription assay; type: biochemical, rat; conditions: 1 μg total brain RNA incubated with 600 ng PNA
Procedure: An in vitro reverse transcription assay was performed-as follows. Total RNA was isolated from 20 mg of tissue using the RNeasy Kit (Qiagen, Chatsworth, Calif.). After isolation, total RNA (lug) was incubated with the PNA oligomers (600 ng) at 40° C. for 40 minutes. Exogenous cRNA standards were added, and cDNA was synthesized using the cDNA Cycle Kit and gene-specific primers for NTR1 and GAPDH (Invitrogen, Carlsbad, Calif.). The exogenous cRNA standards were synthesized from dsDNA templates using the Megashort-Script Kit (Ambion, Austin, Tex.). The dsDNA templates for exogenous cRNA standards for the NTR1- and GAPDH-specific cDNA reactions were constructed using the PCR MIMIC Construction Kit (Clontech) and composite primers. […] After using the cDNA Cycle Kit, quantitative PCR was performed on each sample. […] Products were detected using a Storm860 Phosphoimager (Molecular Dynamics, Sunnyvale, Calif.) and data were analyzed using Image Quant Software (Molecular Dynamics, Sunnyvale, Calif.).
Using this in vitro reverse transcription assay, 1 μg of total RNA isolated from the brain of an untreated rat was incubated with 600 ng of the AS-NTR1-PNA or mismatch-AS-NTR1PNA oligomer and NTR1 cDNA production assessed. […]

[3] = system: neurotensin receptor-1 (NTR1); test: Hot plate test of NT-mediated anti-nociception in PNA-treated rats; type: in vivo, rat
Procedure: Under an Institutional Animal Care and Use Committee approved protocol and under sterile conditions male Sprague-Dawley rats (180-200 g) were stereotaxically implanted with stainless steel guide cannulae (26 gauge) into the PAG under sodium pentobarbital anesthesia (50 mg/kg, i.p.) as described in detail elsewhere (Jensen T. S. and Yaksh T. L., Brain Res. 372:301-312 (1986) and Al-Rodhan N.R.F., Brain Res. 557:227-235 (1991)). The coordinates used for PAG cannulations are -5.6 mm posterior from bregma, 1.0 mm lateral from bregma, and 5.5 mm down from the dura. The guide cannula was pre-measured to be 5.5 mm (Plastics One, Roanoke, Va.) and the internal cannula was ordered to fit below the pedestal with a 2.0 mm projection. The guide cannula was then fixed to the skull using a stainless steel screw (⅛ inch) and cranioplastic cement. A stainless steel stilette was then placed in each guide to keep it patent and free of debris. Immediately after surgery, the animals were allowed to recover before returning them to an individual housing cage. All injections began 5-7 days after surgery.
NTR1-PNA oligomers were injected, using a Hamilton digital syringe, into the PAG through the internal cannula, which extended 2 mm below the guide tip. The internal cannula was connected with a length of polyethylene tubing (PE-20) filled with saline solution. A small air bubble was introduced into the tubing to separate the saline from a solution containing 1.3 nmol of NTR1-PNA oligomers in artificial cerebral-spinal fluid (ACSF). The volume of the solution containing the NTR1-PNA oligomers was about 1.0 μl. The bubble was used to confirm the movement of this solution through the polyethylene tubing.
NTR1-PNA oligomers were injected into the PAG of each rat three times, on days -4, -2, and 0. Controls included rats receiving no injections, rats receiving injections of ACSF only, and rats receiving PNA oligomers having sequence specificity for an unrelated polypeptide, the mu-1 morphine receptor (MU1R). The sequence of MU1R-PNA is 5′-[…]-3′ (SEQ ID NO: 2).
The injection of NT in the PAG of rats produces a potent anti-nociceptive response as well as hypothermia. These responses are mediated by specific NT receptors and are not inhibited by naloxone. A very sensitive and reliable hot plate test was used to measure the anti-nociceptive effects of NT (Al-Rodhan N.R.F., Brain Res. 557:227-235 (1991)).
NTR1-PNA, MU1R-PNA, and ACSF treated as well as untreated rats were analyzed using the hot plate test for NT. One day after the last treatment, each rat was analyzed as follows. Fifteen minutes prior to testing, a pre-drug latency measurement was made by placing the rat on a hot plate maintained at a temperature of 52±0.15° C. and recording the time elapsed before the rat licked either of its hindpaws. In addition, the temperature of the rat was taken using a thermister probe inserted 3 cm in the rectum to determine the pre-drug body temperature (BT). After making these measurement, an appropriate dose of NT (18 nmol) at a volume of about 0.5 ul was administered into the PAG as described above. Thirty minutes after administering NT, the rat was again placed on a hot plate maintained at a temperature of 52±0.15° C. and the latency between the time the rat was placed on the surface and the time it licked either of its hindpaws was measured. […] Hot plate tests were scored as the percent of maximum possible effect (% MPE) and calculated using the following equation: % MPE=[(post-drug latency−pre-drug latency)/(cut-off−pre-drug latency)]×100; where the cut-off is 30 seconds. […] This average for untreated control rats was used to set the baseline MPE value to 100. Immediately after the 30 second hot plate test, BT was taken to measure NT-induced hypothermia using a thermister probe inserted 3 cm in the rectum. […] All test situations were compared to these baseline values derived from NT responsive untreated controls. […]

NTR1-PNA: 12-mer antisense PNA oligomer to rat NTR1 coding region, 5′-CATTGCTCAAAC-3′ (SEQ ID NO: 1) (all peptide nucleic acid (PNA))
% Control dpm's ([1]; Hypothalamus tissue, untreated control, PNA injected into PAG): 55 % Control | number of receptors (mean ± SEM in fmol/mg wet wt.) ([1]; Hypothalamus): 240 ± 30 fmol/mg wet wt. | percent of control ([1]; Hypothalamus): 51% | NT binding sites reduced ([1]; PAG and hypothalamus, 24 hours after oral 10 mg/kg): 50% | number of receptors (mean ± SEM in fmol/mg wet wt.) ([1]; PAG): 140 ± 20 fmol/mg wet wt. | percent of control ([1]; PAG): 48% | Kd ([1]; PAG of treated rats): 8.2 ± 0.7 nM | Kd ([1]; hypothalamus of treated rats): 7 ± 0.8 nM | reduction in NTR1 cDNA synthesis [2]: 65% | anti-nociception score (hot plate) after NT ([3]; 10 mg/kg intraperitoneally, NT 18 nmol into PAG 24 hours later): 25 % MPE | time until which NT-mediated anti-nociception remained significantly reduced ([3]; PNA injected into PAG on days -4, -2, 0): day five | Responsiveness: NT (anti-nociception and hypothermia) ([3]; intraperitoneal administration, Table VI): lost | time for responses to NT to return to baseline levels after PNA injection ([3]; single injection 10 mg/kg, tested every 24 hours with NT): ≤ 48 h

— patent publication US6989270B1, “Using polyamide nucleic acid oligomers to engender a biological response” (Mayo Foundation for Medical Education and Research, priority 1997, dated 2006)
